# Measurements as given in patent publication US20110086389A1, “Compositions and Methods for Expressing In-Frame Multimeric Proteins” (priority 2008, published 2011).
# Like-named read-outs stand apart in the source and are kept apart here. Where a SMILES comes first, the peptide text is derived from it. Bridges are numbered along the chain shown (N, C = ends). Where no end group is shown, it is not given here.
# Columns and labels:
# [1] = target: T1, Kv1.1-1.1-1.2-1.2 tetramer (Rattus norvegicus, UniProt P10499+P63142); assay: Competition of 125I-αDTX binding to transfected HEK-293 cells; set-up: displacement of 125I-αDTX from the tetramer: dose or concentration left out as unconfirmed; conditions: for displacement of 125I-αDTX from the tetramer: transfected HEK-293 cells, FIG. 4B
# T1 construct: nucleic acids encoding the full-length Kv subunit; inter-subunit linker to next subunit (region from Xenopus beta-globin UTRs); expressed in transfected cells; host or cells: HEK-293 (pIRES2-EGFP vector)
# Description: HEK 293 cells are transiently transfected with a PIRES2-EGFP vector encoding Kv1.1-1.1-1.2-1.2 (also referred to as forward adjacent channel; see below) and the cells incubated to display the potassium channels on the cell membranes.
# Cells are harvested in 25 mM Tris HCl, 5 mM KCl pH 7.5 Saturatable binding of ^125I-α-dendrotoxin (DTX), a Kv1-selective toxin, was performed using a filtration assay to measure the amount of assembled channel targeted to the plasmalemma. Transfected cells suspended in binding buffer were incubated for 1 hour with increasing concentrations of labelled DTX; for non-saturable binding experiments, the incubation is performed in the presence of 1 μM unlabeled DTX. Measurements are made in triplicate under established conditions by rapid filtration through GF/F glass microfiber filters presoaked with 0.5% (w/v) polyethyleneimine. The radioactivity associated with the washed filters was quantified by γ-radiation counting.
# In FIG. […]
# [2] = target: T2, Kv1.4-1.6-1.1-1.2 (Rattus norvegicus, UniProt P10499+P15385+P17659+P63142); assay: Whole-cell voltage-clamp inhibition of IK, Kv1.4-containing hetero-tetramers; type: cell-based; conditions: Kv1.4-1.6-1.1-1.2 versus Kv1.4-1.6-1.3-1.2; 1, 10, 100 nM; assayed at ≦0 mV, FIG. 10F
# T2 construct: nucleic acids encoding the full-length Kv subunit; inter-subunit linker to next subunit (region from Xenopus beta-globin UTRs); expressed in transfected cells; host or cells: HEK-293
# Description: In these examples, the functional properties of the concatenated Kv1 heteromers Kv 1.1-1.1-1.2-1.2, Kv1.4-1.6-1.1-1.2 and Kv1.4-1.6-1.3-1.2 were examined by whole-cell voltage-clamped recordings from the corresponding transfected HEK-293 cells. The activation kinetics of the currents mediated by Kv 1.1-1.1-1.2-1.2 Kv 1.4-1.6-1.1-1.2 and Kv1.4-1.6-1.3-1.2 were determined.
# The sensitivities of the potassium channel currents mediated by Kv 1.1-1.1-1.2-1.2 Kv 1.4-1.6-1.1-1.2 and Kv1.4-1.6-1.3-1.2 to various blockers were also examined in these examples.
# Whole-cell voltage-clamp experiments were performed as outlined in Sokolov, et al., Neuropharmacol. 53:2, 272-282, (2007), whose disclosure is hereby incorporated by reference. The internal solution was (in mM): 90 KCl, 50 KF, 30 KOH, 10 EGTA, 20 HEPES, pH 7.4. […] Correction was made for a calculated liquid junction potential of +8.4 mV. […] Non-linear fitting was carried out with equations described in (Sack et al., Gen. Physiol. 128:1, 119-132, (2006), whose disclosure is hereby incorporated by reference. Data are reported as mean±standard error; n values refer to number of individual cells tested. Statistical significance was evaluated by two-tailed Student's t-test using data obtained from at least five independent experiments performed in parallel.
# [3] = target: T3, Kv1.2-1.1-1.2-1.1 (reverse diagonal channel) (Rattus norvegicus, UniProt P10499+P63142); assay: Whole-cell voltage-clamp (QPatch) inhibition of K+ current, reverse diagonal channel; type: cell-based; conditions: HEK-293 cells
# T3 construct: nucleic acids encoding the full-length Kv subunit; inter-subunit linker to next subunit (region from Xenopus beta-globin UTRs); expressed in transfected cells; host or cells: HEK-293 (pIRES2-EGFP vector)
# Description: (§1) Whole-cell voltage-clamp experiments were performed as outlined in Sokolov, et al., Neuropharmacol. 53:2, 272-282, (2007), whose disclosure is hereby incorporated by reference. The internal solution was (in mM): 90 KCl, 50 KF, 30 KOH, 10 EGTA, 20 HEPES, pH 7.4. The extracellular bath solution contained (in mM) 135 choline chloride, 20 KOH, 1.8 CaCl2, 1 MgCl2, and 40 HEPES, pH 7.4, and 0.01% (w/v) BSA. Solutions were exchanged by continuous flow with a peristaltic pump or a Cellectricon Dynaflow-16 system. Series resistance compensation was applied to minimize the voltage error (<10 mV). Correction was made for a calculated liquid junction potential of +8.4 mV. Holding potential was −100 mV. Leak subtraction was used to isolate K^+ current (IK). Analogue traces were filtered at 5 kHz, and sampled at 50 kHz. Non-linear fitting was carried out with equations described in (Sack et al., Gen. Physiol. 128:1, 119-132, (2006), whose disclosure is hereby incorporated by reference. Data are reported as mean±standard error; n values refer to number of individual cells tested. Statistical significance was evaluated by two-tailed Student's t-test using data obtained from at least five independent experiments performed in parallel.
# (§2) In these examples, the functional properties of the Kv1 heteromers Kv1.1-1.1-1.2-1.2, Kv1.1-1.2-1.1-1.2, […] and Kv1.2-1.1-1.2-1.1 were compared by whole-cell, voltage-clamp, conventional recordings from HEK-293 cells transfected separately with each of the 4 constructs.
# (§3) In these examples the sensitivities of the potassium channel currents mediated by these tetramers to various blockers were also examined. Inhibition by TEA, or Agitoxinl (AgTX1) and TsTX-Kα were determined.
# (§4) Whole-cell voltage-clamp was performed as described in Example 25-27, except where specified. […] Whole cell currents were measured at a holding potential of −100 mV, then depolarised to +60 mV for 200 ms or stepped from the holding potential in +10 mV increments. […]
# [4] = target: T4, Kv1.1-1.2-1.1-1.2 (forward diagonal channel) (Rattus norvegicus, UniProt P10499+P63142); assay: Whole-cell voltage-clamp (QPatch) inhibition of K+ current, diagonal channel; type: cell-based; conditions: for IC50: HEK-293 cells
# T4 construct: nucleic acids encoding the full-length Kv subunit; inter-subunit linker to next subunit (region from Xenopus beta-globin UTRs); expressed in transfected cells; host or cells: HEK-293 (pIRES2-EGFP vector)
# Description: as §1, §2, §3
# (§5) Whole-cell voltage-clamp was performed as described in Example 25-27, except where specified. For larger scale recordings, an automated patch-clamp system (QPatch 16, Sophion, Denmark) was used; its disposable Qplates contain 16 individual and parallel patch-clamp positions. Cells were detached from culture plates with 0.05% trypsin/EDTA solution and kept in serum-free medium (CHO-S-SFM II [Invitrogen], 25 mM HEPES, pH 7.4, 0.04 μg/ml soya bean trypsin inhibitor, and 10 μg/ml penicillin-streptomycin) in an on-board stirred reservoir. Prior to testing, the cells were automatically transferred to an integral mini-centrifuge, pelleted, re-suspended in external solution (as detailed above) and washed before being applied to the pipeting wells in the Q plate. Giga-seals were formed upon execution of a combined suction/voltage protocol; gradually increasing suction leads to the whole-cell configuration. […] Whole cell currents were measured at a holding potential of −100 mV, then depolarised to +60 mV for 200 ms or stepped from the holding potential in +10 mV increments. […]
# [5] = target: T5, Kv1.1-1.2 dimer-containing channel (Rattus norvegicus, UniProt P10499+P63142); assay: Whole-cell voltage-clamp inhibition of K+ current, dimer-containing channel; type: cell-based; conditions: HEK-293 cells
# T5 construct: expressed in transfected cells
# Description: as §1, §2, §3, §4
# [6] = target: T6, Kv1.2-1.2-1.1-1.1 (reverse adjacent channel) (Rattus norvegicus, UniProt P10499+P63142); assay: Whole-cell voltage-clamp (QPatch) inhibition of K+ current, reverse adjacent channel; type: cell-based; conditions: HEK-293 cells, holding −100 mV, depolarised to +60 mV
# T6 construct: nucleic acids encoding the full-length Kv subunit; inter-subunit linker to next subunit (region from Xenopus beta-globin UTRs); expressed in transfected cells; host or cells: HEK-293 (pIRES2-EGFP vector)
# Description: as §1, §2, §3, §4
# [7] = target: T7, Kv1.1-1.1-1.2-1.2 (forward adjacent channel) (Rattus norvegicus, UniProt P10499+P63142); assay: Whole-cell voltage-clamp (QPatch) inhibition of K+ current, adjacent channel; type: cell-based; conditions: for IC50: HEK-293 cells, holding −100 mV, depolarised to +60 mV
# T7 construct: nucleic acids encoding the full-length Kv subunit; inter-subunit linker to next subunit (region from Xenopus beta-globin UTRs); expressed in transfected cells; host or cells: HEK-293 (pIRES2-EGFP vector)
# Description: as §1, §2, §3, §5
# [8] = unit printed in cell (row head says nM), read-out: IC50 TsTxKα
# [9] = unit printed in cell (row head says nM), read-out: IC50 AgTx1
# [10] = holding −100 mV, depolarised to +60 mV, read-out: IC50 TEA
# T5 sequence (P10499 whole entry): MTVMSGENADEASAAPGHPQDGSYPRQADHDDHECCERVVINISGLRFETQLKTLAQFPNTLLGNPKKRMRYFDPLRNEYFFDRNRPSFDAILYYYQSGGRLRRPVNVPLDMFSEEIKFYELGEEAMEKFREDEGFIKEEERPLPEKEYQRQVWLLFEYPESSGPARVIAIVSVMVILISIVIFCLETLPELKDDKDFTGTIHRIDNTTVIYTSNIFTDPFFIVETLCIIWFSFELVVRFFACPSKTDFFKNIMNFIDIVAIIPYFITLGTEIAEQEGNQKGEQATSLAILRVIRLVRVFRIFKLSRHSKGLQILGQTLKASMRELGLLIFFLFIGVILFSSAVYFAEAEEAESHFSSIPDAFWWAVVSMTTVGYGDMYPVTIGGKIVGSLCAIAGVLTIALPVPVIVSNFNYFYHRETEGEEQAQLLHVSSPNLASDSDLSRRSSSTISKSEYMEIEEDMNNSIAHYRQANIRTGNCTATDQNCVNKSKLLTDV
# T5 sequence (P63142 whole entry): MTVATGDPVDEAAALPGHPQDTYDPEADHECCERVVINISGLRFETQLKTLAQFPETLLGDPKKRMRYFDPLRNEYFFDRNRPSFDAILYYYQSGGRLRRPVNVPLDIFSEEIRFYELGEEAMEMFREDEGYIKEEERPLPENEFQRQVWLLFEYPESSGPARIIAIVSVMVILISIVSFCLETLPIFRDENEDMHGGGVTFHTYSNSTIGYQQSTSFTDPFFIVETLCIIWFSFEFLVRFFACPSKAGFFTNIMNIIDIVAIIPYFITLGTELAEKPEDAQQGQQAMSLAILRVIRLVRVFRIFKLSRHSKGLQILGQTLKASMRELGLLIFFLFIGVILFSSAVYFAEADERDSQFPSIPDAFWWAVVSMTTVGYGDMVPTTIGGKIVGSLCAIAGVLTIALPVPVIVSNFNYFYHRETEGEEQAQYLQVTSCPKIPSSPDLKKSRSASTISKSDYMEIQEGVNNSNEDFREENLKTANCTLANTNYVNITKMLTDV
# T4 sequence (P10499 whole entry): as the sequence (P10499 whole entry) above
# T4 sequence (P63142 whole entry): as the sequence (P63142 whole entry) above
# T4 sequence (P10499 whole entry): as the sequence (P10499 whole entry) above
# T4 sequence (P63142 whole entry): as the sequence (P63142 whole entry) above
# T1 sequence (P10499 whole entry): as the sequence (P10499 whole entry) above
# T1 sequence (P10499 whole entry): as above
# T1 sequence (P63142 whole entry): as the sequence (P63142 whole entry) above
# T1 sequence (P63142 whole entry): as above
# T7 sequence (P10499 whole entry): as the sequence (P10499 whole entry) above
# T7 sequence (P10499 whole entry): as above
# T7 sequence (P63142 whole entry): as the sequence (P63142 whole entry) above
# T7 sequence (P63142 whole entry): as above
# T3 sequence (P63142 whole entry): as above
# T3 sequence (P10499 whole entry): as the sequence (P10499 whole entry) above
# T3 sequence (P63142 whole entry): as the sequence (P63142 whole entry) above
# T3 sequence (P10499 whole entry): as the sequence (P10499 whole entry) above
# T6 sequence (P63142 whole entry): as the sequence (P63142 whole entry) above
# T6 sequence (P63142 whole entry): as above
# T6 sequence (P10499 whole entry): as the sequence (P10499 whole entry) above
# T6 sequence (P10499 whole entry): as above
# T2 sequence (P15385 whole entry): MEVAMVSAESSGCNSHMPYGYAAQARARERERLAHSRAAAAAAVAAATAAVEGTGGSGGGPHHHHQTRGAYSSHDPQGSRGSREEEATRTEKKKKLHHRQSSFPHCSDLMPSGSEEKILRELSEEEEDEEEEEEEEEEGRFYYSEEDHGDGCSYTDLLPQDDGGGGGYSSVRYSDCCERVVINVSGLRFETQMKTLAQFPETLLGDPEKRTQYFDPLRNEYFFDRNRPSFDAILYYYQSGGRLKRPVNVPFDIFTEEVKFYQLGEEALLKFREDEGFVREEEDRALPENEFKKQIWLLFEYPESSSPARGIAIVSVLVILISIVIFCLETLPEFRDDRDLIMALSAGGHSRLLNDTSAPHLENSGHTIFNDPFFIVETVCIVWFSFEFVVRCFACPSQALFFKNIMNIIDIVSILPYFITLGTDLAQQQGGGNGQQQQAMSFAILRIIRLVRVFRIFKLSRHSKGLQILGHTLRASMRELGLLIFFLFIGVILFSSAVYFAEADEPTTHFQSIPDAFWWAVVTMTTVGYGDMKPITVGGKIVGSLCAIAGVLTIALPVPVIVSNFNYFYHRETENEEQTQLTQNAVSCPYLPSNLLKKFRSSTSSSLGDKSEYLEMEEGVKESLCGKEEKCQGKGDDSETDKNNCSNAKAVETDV
# T2 sequence (P17659 whole entry): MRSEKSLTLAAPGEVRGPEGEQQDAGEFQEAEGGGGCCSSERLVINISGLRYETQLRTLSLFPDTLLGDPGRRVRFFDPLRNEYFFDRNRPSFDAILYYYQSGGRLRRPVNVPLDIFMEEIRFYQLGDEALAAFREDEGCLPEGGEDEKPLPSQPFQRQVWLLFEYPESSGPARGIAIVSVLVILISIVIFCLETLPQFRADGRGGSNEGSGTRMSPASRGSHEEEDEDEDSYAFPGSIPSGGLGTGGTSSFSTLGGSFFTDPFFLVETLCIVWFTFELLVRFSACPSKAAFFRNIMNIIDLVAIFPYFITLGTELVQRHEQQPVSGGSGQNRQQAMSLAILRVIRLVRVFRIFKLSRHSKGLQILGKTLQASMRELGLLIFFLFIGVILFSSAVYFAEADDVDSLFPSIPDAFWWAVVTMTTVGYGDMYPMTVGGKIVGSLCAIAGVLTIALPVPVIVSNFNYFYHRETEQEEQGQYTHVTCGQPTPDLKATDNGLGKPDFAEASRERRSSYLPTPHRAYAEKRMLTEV
# T2 sequence (P10499 whole entry): as the sequence (P10499 whole entry) above
# T2 sequence (P63142 whole entry): as the sequence (P63142 whole entry) above
compound,measurement,setting,value
"DTXk: toxin, Kv1 channel blocker competing with 125I-αDTX (AAKYCKLPLRIGPCKRKIPSFYYKWKAKQCLPFDYSGCGGNANRFKTIEECRRTCVG; ends and bridges not checked; cysteine pairing not given here)",displacement of 125I-αDTX from the tetramer,[1],readily displaced
same,"inhibition of IK, sensitivity difference between channels",[2],significant sensitivity difference
α-dendrotoxin (QPRRKLCILHRNPGRCYDKIPAFYYNQKKKQCERFDWSGCGGNSNRFKTIEECRRTCIG) [αDTX],displacement of 125I-αDTX from the tetramer,[1],readily displaced
"CC[C@H](C)[C@@H]1NC(=O)[C@H](C)NC(=O)[C@H](CCC(=O)O)NC(=O)[C@H](CCCCN)NC(=O)[C@@H]2CSSC[C@@H](C(=O)N[C@@H](Cc3ccc(O)cc3)C(=O)N3CCC[C@H]3C(=O)O)NC(=O)[C@H](CCCCN)NC(=O)[C@@H]3CSSC[C@H](NC(=O)[C@H](CCC(=O)O)NC(=O)[C@@H]4CCCN4C(=O)[C@H](CO)NC(=O)CNC(=O)[C@H](CCCNC(=N)N)NC(=O)[C@@H](NC(=O)[C@H](CCCCN)NC(=O)[C@H](C)NC(=O)[C@H](CC(N)=O)NC(=O)[C@@H](NC(=O)[C@H](Cc4ccccc4)NC(=O)[C@@H](N)C(C)C)[C@@H](C)CC)CSSC[C@H](NC(=O)[C@H](CCCCN)NC(=O)CNC(=O)[C@H](C)NC(=O)[C@H](C)NC(=O)[C@H](CCCCN)NC(=O)CNC1=O)C(=O)N[C@@H](CCSC)C(=O)N[C@@H](CC(N)=O)C(=O)NCC(=O)N[C@@H](CCCCN)C(=O)N3)C(=O)N[C@@H](CC(C)C)C(=O)N1CCC[C@H]1C(=O)N[C@@H](CCCCN)C(=O)N2 [TsTxKα, tityustoxin-Kα] (H-VFINAKCRGSPECLPKCKEAIGKAAGKCMNGKCKCYP-OH; disulfide 7-28, 13-33, 17-35; N-terminus and C-terminus assumed)",IC50,[3]; [8],> 1000 nM
same,displacement of 125I-αDTX from the tetramer,[1],readily displaced
same,IC50,[4]; [8],> 1000 nM
same,IC50,[5]; read-out: IC50 TsTxKα,0.033 ± 0.003 µM
same,IC50,[6]; read-out: IC50 TsTxKα,0.025 ± 0.007 µM
same,IC50,[7]; read-out: IC50 TsTxKα,0.026 ± 0.003 µM
ShK: toxin competing with 125I-αDTX binding; parent of derivative ShK-Dap^22,antagonism of 125I-αDTX binding,"[1]; 2.5 μM 125I-αDTX, transfected HEK cells, FIG. 4C",to a greater extent than does the derivative ShK-Dap^22
"CC[C@H](C)[C@@H]1NC(=O)[C@@H]2CSSC[C@H](NC(=O)[C@H](CCCCN)NC(=O)[C@@H](NC(=O)[C@H](CC(N)=O)NC(=O)[C@@H](NC(=O)[C@@H]3CCCN3C(=O)[C@@H](NC(=O)CN)C(C)C)[C@@H](C)CC)C(C)C)C(=O)N[C@@H]([C@@H](C)O)C(=O)NCC(=O)N[C@@H](CO)C(=O)N3CCC[C@H]3C(=O)N[C@@H](CCC(N)=O)C(=O)N[C@H]3CSSC[C@H](NC(=O)[C@H](CCCCN)NC(=O)CNC(=O)[C@H](CC(N)=O)NC1=O)C(=O)N[C@@H](Cc1c[nH]cn1)C(=O)N[C@H](C(=O)N[C@H](C(=O)N1CCC[C@H]1C(=O)N[C@@H](CCCCN)C(=O)O)[C@@H](C)O)CSSC[C@H](NC(=O)[C@@H]1CCCN1C(=O)[C@H](CCCCN)NC(=O)[C@H](CC(C)C)NC3=O)C(=O)N[C@@H](CCCCN)C(=O)N[C@@H](CC(=O)O)C(=O)N[C@@H](C)C(=O)NCC(=O)N[C@@H](CCSC)C(=O)N[C@@H](CCCNC(=N)N)C(=O)N[C@@H](Cc1ccccc1)C(=O)NCC(=O)N[C@@H](CCCCN)C(=O)N2 [AgTx1, Agitoxinl] (H-GVPINVKCTGSPQCLKPCKDAGMRFGKCINGKCHCTPK-OH; disulfide 8-28, 14-33, 18-35; N-terminus and C-terminus assumed)",IC50,[3]; [9],≥ 1000 nM
same,IC50,[4]; [9],> 1000 nM
same,sensitivity to AgTX1,"[4]; diagonal oligomers, FIG. 12C",virtually insensitive
same,IC50,[5]; read-out: IC50 AgTx1,0.039 ± 0.004 µM
same,IC50,[6]; read-out: IC50 AgTx1,0.005 ± 0.0005 µM
same,IC50,[7]; read-out: IC50 AgTx1,0.005 ± 0.0004 µM
"CC[N+](CC)(CC)CC [TEA, tetraethylammonium]",IC50,[3]; [10],960000 ± 140000 nM
same,IC50,[4]; [10],760000 ± 100000 nM
same,IC50,[5]; read-out: IC50 TEA,12000 ± 1000 µM
same,IC50,[6]; read-out: IC50 TEA,6700 ± 2000 µM
same,IC50,[7]; read-out: IC50 TEA,9700 ± 1000 µM
same,fold lower affinity for TEA than the corresponding diagonals,"[7]; forward and reverse adjacent channels versus diagonal channels, FIG. 12B",~11 fold
